Key:
[1] = tested on: Matrix Metalloproteinase-1 (MMP-1); test: Inhibition of MMP-1 production in PMA induced A2058 cells (ELISA); assay type: cell-based; conditions: PMA induced A2058 human melanoma cells, 24 h, supernatant ELISA
Description: A2058 cells were induced with 50 nM PMA in absence or presence of different concentrations of LI/DD-II/054A/01 for 24 h as indicated. Secreted MMP-1 concentration in the cell free culture supernatants was measured using MMP-1 ELISA Development Kit (R&D System, Minneapolis, Minn., USA). The MMP-1 concentration in culture supernatants was estimated quantitatively from the standard curve generated using known concentrations of MMP-1. Percentage of MMP-1 inhibition at each concentration of test compound was calculated from the formula: {(Conc. of MMP-1 in PMA induced−Conc. of MMP-1 in the test well)×100}[…]Conc. of MMP-1 in PMA induced wells.
MMP-1 was evaluated in PMA induced human melanoma cells, A2058. Briefly, the cells were cultured in Dulbecco's Modified Eagles Medium (DMEM) with 2 mM Glutamine, 100 U/mL penicillin, […] streptomycin and 10% fetal bovine serum (Hyclone, Logan, Utah). Five thousand cells per well were seeded into a 96-well cell culture plate (Corning, USA) one day before the experiment. The culture media was replaced with fresh DMEM containing 10% fetal bovine serum. […] The MMP-1 concentration in culture supernatant was estimated quantitatively by interpolating the optical densities into the standard curve generated from known concentrations of MMP-1. […]

[2] = tested on: CD36; test: Immunoblot of CD36 in high glucose induced J774 macrophage cells; assay type: cell-based, mouse; conditions: glucose 600 mg/dL for 5 days, LI054A01 at 1 μg/ml
Description: In macrophages, CD36 is a scavenger receptor that mediates uptake of oxidized low-density lipoprotein (OxLDL) and subsequent foam-cell development. Therefore, increased level of CD36 in macrophages has been considered as a predictive marker for development of atherosclerosis. Inhibition of CD36 protein expression in high glucose induced J774 macrophage cells in presence or absence of LI/DD-II/054A/01 and LI054A01 was evaluated using immunoblot assay. Briefly, equal amount of cell lysates protein obtained after treating the cells with LI/DD-II/054A/01 or LI054A01 was resolved in 7.5% SDS-PAGE; thereafter, the proteins were transferred to nitrocellulose membrane. […] Finally, the specific immuno-reactive bands were developed with West-pico chemiluminescent substrate (Pierce Biotechnology, IL, USA), and the immunoblot images were recorded in a Kodak Image Station (Kodak, USA). Band intensities were calculated densitometrically and normalized with expression of actin in respective samples. […]
Experimental protocol: This was evaluated in glucose induced J774, mouse macrophage cells. […] Protein concentration was measured by Bradford method.
Inhibition of CD36 protein expression in high glucose induced J774 macrophage cells in presence or absence of LI/DD-II/054A/01 and LI054A01 was evaluated in immunoblot assay. […]

C=C1C(=O)O[C@H]2C3=C(C)CCC[C@]3(C)CC[C@@]12O [LI054A01, 7-α-hydroxy-4,11(13)-eudesmadien-12,6-olide]
IC50 of MMP-1 [1]: 1.2 mg/L | inhibition of CD36 compared to that shown by LI/DD-II/054A/01 [2]: 10 times

Reference: US9241964B2, “Composition from Sphaeranthus indicus and Garcinia mangostana for the control of metabolic syndrome” (LAILA NUTRACEUTICALS, priority 2009, dated 2016)
